Results taken from the supplement of paper PMC7796163.
± gives the uncertainty stated by the source.

How the values were obtained:
Assay in all cases: CYP enzyme activity (probe substrate metabolite formation) fold change vs solvent control; higher = stronger induction of CYP activity
Conditions in all cases: HepaRG
[1] = target: CYP2C19 (UniProt P33261)
Protocol: (§1)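 Differentiated HepaRG cells were treated with 1, 5 or 10 µM of each PAH (0.5% DMSO) for 12, 24 or 48 h, then incubated for 3 h at 37 °C with a cocktail of isoform-specific CYP substrates (phenacetin for CYP1A2, bupropion for CYP2B6, amodiaquine for CYP2C8, tolbutamide for CYP2C9, mephenytoin for CYP2C19, propafenone for CYP2D6, atorvastatin for CYP3A4). Metabolite formation was quantified by LC-MS as a measure of CYP activity and reported as fold change over solvent control (mean ± SD, n=3). Values below the LLOQ were set to half the LLOQ.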

[2] = target: CYP2C9 (UniProt P11712)
Protocol: as §1

[3] = target: T1, CYP1A2 (UniProt P05177)
T1 sequence (whole entry): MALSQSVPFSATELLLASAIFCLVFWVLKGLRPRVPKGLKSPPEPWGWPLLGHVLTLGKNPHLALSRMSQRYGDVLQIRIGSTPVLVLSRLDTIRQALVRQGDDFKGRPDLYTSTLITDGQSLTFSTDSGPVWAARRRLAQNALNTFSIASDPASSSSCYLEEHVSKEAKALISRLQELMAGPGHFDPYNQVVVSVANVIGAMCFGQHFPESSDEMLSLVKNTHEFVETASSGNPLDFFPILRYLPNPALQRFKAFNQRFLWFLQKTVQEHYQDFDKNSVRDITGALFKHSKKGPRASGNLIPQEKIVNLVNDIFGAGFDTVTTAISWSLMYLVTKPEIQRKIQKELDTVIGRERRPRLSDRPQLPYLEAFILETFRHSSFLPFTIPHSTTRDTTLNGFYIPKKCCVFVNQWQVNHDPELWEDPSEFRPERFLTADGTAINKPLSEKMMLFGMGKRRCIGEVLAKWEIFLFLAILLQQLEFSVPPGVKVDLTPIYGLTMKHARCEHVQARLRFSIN
Protocol: as §1

[4] = target: T2, CYP2C8 (UniProt P10632)
T2 sequence (whole entry): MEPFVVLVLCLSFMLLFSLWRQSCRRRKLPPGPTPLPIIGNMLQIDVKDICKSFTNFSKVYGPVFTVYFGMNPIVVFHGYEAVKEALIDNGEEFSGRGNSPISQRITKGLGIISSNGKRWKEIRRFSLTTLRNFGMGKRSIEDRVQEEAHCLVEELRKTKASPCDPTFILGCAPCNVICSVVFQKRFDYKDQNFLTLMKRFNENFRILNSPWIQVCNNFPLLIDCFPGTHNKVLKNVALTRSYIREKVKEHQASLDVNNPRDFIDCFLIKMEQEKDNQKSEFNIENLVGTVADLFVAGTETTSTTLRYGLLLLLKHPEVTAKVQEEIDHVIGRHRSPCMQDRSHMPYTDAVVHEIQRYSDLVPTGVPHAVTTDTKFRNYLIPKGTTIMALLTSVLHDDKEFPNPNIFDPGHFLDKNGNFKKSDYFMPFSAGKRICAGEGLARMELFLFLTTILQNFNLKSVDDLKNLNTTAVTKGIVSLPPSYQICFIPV
Protocol: as §1

[5] = target: CYP3A4 (UniProt P08684)
Protocol: as §1

[6] = target: CYP2D6 (UniProt P10635)
Protocol: as §1

[7] = target: T3, CYP2B6 (UniProt P20813)
T3 sequence (whole entry): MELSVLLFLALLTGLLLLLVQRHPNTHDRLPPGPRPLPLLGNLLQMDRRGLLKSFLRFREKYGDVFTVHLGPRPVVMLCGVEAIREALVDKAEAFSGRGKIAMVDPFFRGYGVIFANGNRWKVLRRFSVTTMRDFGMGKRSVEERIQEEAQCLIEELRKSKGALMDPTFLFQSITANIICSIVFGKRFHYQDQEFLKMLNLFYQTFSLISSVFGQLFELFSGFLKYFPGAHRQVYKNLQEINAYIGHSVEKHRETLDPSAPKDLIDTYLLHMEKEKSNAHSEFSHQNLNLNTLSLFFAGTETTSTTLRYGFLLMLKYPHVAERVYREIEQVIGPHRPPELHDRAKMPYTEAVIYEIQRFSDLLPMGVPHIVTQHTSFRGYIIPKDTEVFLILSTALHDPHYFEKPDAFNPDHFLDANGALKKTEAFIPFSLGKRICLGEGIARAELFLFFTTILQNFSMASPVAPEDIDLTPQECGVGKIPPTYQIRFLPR
Protocol: as §1

Chain of CYP2D6 (P10635 whole entry): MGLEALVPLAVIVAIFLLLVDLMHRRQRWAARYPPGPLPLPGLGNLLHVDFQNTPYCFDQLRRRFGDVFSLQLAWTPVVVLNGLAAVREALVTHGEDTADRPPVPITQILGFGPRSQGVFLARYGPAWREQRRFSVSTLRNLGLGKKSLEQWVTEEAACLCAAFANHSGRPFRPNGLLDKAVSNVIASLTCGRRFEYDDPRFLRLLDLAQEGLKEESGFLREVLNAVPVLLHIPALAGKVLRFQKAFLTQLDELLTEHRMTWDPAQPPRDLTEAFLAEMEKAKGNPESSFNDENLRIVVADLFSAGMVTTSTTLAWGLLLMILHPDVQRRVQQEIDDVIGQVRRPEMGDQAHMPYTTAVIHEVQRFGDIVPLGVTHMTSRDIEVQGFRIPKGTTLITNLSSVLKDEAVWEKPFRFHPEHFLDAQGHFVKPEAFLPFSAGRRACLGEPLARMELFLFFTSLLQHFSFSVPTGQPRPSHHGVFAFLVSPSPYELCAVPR
Chain of CYP2C19 (P33261 whole entry, canonical isoform): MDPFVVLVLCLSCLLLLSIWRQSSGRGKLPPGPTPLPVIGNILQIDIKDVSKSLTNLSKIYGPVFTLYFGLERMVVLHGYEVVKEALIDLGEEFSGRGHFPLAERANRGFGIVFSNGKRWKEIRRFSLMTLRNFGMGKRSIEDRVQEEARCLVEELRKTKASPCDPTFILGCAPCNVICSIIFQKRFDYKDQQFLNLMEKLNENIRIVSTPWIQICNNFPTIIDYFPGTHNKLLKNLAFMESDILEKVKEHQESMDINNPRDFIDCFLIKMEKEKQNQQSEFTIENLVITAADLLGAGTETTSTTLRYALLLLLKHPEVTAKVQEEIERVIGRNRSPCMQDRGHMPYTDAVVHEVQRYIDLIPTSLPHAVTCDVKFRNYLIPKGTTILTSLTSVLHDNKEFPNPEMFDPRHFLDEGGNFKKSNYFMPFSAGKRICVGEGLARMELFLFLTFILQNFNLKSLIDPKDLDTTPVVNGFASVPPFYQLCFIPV
Chain of CYP2C9 (P11712 whole entry): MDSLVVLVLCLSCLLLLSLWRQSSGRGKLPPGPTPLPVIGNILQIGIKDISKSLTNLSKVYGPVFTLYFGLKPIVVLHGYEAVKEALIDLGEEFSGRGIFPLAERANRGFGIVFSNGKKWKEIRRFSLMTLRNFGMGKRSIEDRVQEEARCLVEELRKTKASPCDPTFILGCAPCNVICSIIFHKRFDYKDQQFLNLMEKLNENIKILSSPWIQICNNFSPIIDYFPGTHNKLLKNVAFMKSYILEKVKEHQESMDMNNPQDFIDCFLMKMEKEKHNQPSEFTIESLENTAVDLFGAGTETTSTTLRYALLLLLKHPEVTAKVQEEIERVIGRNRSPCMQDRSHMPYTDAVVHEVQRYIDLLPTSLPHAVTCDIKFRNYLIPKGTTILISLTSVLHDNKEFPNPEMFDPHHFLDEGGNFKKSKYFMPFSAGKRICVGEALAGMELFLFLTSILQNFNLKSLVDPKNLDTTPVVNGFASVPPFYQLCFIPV
Chain of CYP3A4 (P08684 whole entry): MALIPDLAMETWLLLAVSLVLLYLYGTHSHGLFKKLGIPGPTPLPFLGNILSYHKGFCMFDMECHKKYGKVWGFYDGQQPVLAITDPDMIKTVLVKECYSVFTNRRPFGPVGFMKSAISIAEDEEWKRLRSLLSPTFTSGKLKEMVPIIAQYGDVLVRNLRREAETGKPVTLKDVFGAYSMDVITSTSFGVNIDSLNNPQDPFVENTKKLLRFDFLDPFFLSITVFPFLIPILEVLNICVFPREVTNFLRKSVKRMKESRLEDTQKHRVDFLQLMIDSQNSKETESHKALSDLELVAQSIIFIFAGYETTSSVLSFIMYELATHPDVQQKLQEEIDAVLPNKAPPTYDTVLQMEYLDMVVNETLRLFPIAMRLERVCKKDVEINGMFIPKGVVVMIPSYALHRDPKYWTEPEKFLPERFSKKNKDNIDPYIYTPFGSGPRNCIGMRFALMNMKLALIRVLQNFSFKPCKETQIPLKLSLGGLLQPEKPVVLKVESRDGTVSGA

c1ccc2c(c1)cc1ccc3cccc4ccc2c1c34 [benzo[a]pyrene]
CYP enzyme activity
Conditions | [1] | [2] | [3] | [4] | [5] | [6] | [7]
1 µM, treatment time 12 h | 0.898 ± 0.067 | 0.945 ± 0.053 | 2.02 ± 0.5 | 0.886 ± 0.018 | 0.849 ± 0.017 | 1.11 ± 0.13 | 0.982 ± 0.071
1 µM, treatment time 24 h | 0.895 ± 0.047 | 1 ± 0.083 | 1.3 ± 0.2 | 0.925 ± 0.046 | 0.812 ± 0.028 | 0.883 ± 0.052 | 1.14 ± 0.038
1 µM, treatment time 48 h | 0.85 ± 0.022 | 0.896 ± 0.046 | 0.816 ± 0.018 | 0.895 ± 0.068 | 0.734 ± 0.015 | 0.691 ± 0.036 | 0.753 ± 0.072
5 µM, treatment time 12 h | 0.908 ± 0.018 | 0.85 ± 0.15 | 7.75 ± 2.4 | 0.671 ± 0.18 | 1.04 ± 0.099 | 2.43 ± 0.59 | 1.22 ± 0.11
5 µM, treatment time 24 h | 0.847 ± 0.049 | 1.03 ± 0.12 | 4.55 ± 0.78 | 0.774 ± 0.055 | 0.834 ± 0.081 | 1.07 ± 0.061 | 1.61 ± 0.17
5 µM, treatment time 48 h | 0.855 ± 0.065 | 0.773 ± 0.014 | 1.04 ± 0.031 | 0.686 ± 0.1 | 0.678 ± 0.071 | 0.598 ± 0.074 | 0.977 ± 0.33
10 µM, treatment time 12 h | 0.761 ± 0.12 | 0.67 ± 0.14 | 5.63 ± 1.7 | 0.464 ± 0.15 | 1.05 ± 0.074 | 2.24 ± 0.058 | 0.881 ± 0.15
10 µM, treatment time 24 h | 0.835 ± 0.018 | 0.872 ± 0.022 | 7.76 ± 0.89 | 0.66 ± 0.056 | 0.762 ± 0.047 | 1.34 ± 0.086 | 1.52 ± 0.38
10 µM, treatment time 48 h | 0.661 ± 0.18 | 0.654 ± 0.17 | 1.24 ± 0.013 | 0.415 ± 0.11 | 0.599 ± 0.14 | 0.51 ± 0.14 | 0.954 ± 0.42

c1ccc2c(c1)-c1cccc3c1c-2cc1ccccc13 [benzo[b]fluoranthene]
CYP enzyme activity
Conditions | [1] | [2] | [3] | [4] | [5] | [6] | [7]
1 µM, treatment time 12 h | 0.955 ± 0.065 | 0.95 ± 0.068 | 2.68 ± 0.92 | 0.95 ± 0.059 | 0.857 ± 0.088 | 1.24 ± 0.26 | 1.04 ± 0.12
1 µM, treatment time 24 h | 0.885 ± 0.077 | 0.907 ± 0.047 | 1.78 ± 0.26 | 0.906 ± 0.061 | 0.751 ± 0.05 | 0.924 ± 0.014 | 1.23 ± 0.21
1 µM, treatment time 48 h | 0.984 ± 0.12 | 0.891 ± 0.057 | 1.75 ± 0.34 | 0.908 ± 0.032 | 0.732 ± 0.054 | 0.763 ± 0.16 | 0.832 ± 0.04
5 µM, treatment time 12 h | 1.05 ± 0.093 | 0.978 ± 0.029 | 3.81 ± 1.8 | 0.951 ± 0.12 | 0.925 ± 0.14 | 1.38 ± 0.062 | 1.29 ± 0.24
5 µM, treatment time 24 h | 0.951 ± 0.09 | 0.951 ± 0.093 | 9.11 ± 0.86 | 0.817 ± 0.037 | 0.823 ± 0.044 | 1.52 ± 0.3 | 2.08 ± 0.27
5 µM, treatment time 48 h | 0.976 ± 0.013 | 0.82 ± 0.018 | 5.4 ± 0.71 | 0.717 ± 0.059 | 0.732 ± 0.074 | 0.934 ± 0.28 | 1.33 ± 0.17
10 µM, treatment time 12 h | 0.995 ± 0.21 | 0.939 ± 0.12 | 0.947 ± 0.035 | 0.929 ± 0.079 | 0.875 ± 0.079 | 1.19 ± 0.13 | 1.21 ± 0.054
10 µM, treatment time 24 h | 0.876 ± 0.084 | 0.842 ± 0.071 | 13.2 ± 1.1 | 0.758 ± 0.11 | 0.723 ± 0.029 | 1.87 ± 0.37 | 1.71 ± 0.42
10 µM, treatment time 48 h | 0.667 ± 0.11 | 0.602 ± 0.13 | 7.06 ± 0.33 | 0.444 ± 0.07 | 0.495 ± 0.081 | 0.823 ± 0.18 | 1.4 ± 0.22
